The values below come from patent US20100254965A1, “Adenosine Signaling in Diagnosis, Treatment, and Prevention of Priapism and Erectile Dysfunction” (BOARD OF REGENTS ,THE UNIVERSITY OF TEXAS SYSTEM, priority 2006, published 2010).

Assay [1] has as its system corpus cavernosum of wild type, A2A-deficient and A2B-deficient mice. The assay is described as follows: Intracavernous injection of adenosine: intracavernous pressure (ICP) and penile erection. Format: in vivo, mouse. Here is the method:
FIG. 6. Different amounts of adenosine were injected into the corpus cavernosum of wild type, adenosine receptor A2A-deficient, and adenosine receptor A2B-deficient mice and the resulting change in ICP determined.
Methods: ADA-deficient mice and SCD transgenic mice, a well accepted priapism animal model, are the only animals known in which a persistent and prolonged penile erection occurs spontaneously. […] We have measured intracavernosal pressure and corpus cavernosal strip (CCS) relaxation with or without PEG-ADA treatment and/or a series of adenosine receptor antagonists or agonists in wild type ADA-deficient mice, and corpus cavernosal strip (CCS) relaxation with or without PEG-ADA treatment and/or a series of adenosine receptor antagonists or agonists in SCD transgenic mice, in response to nerve stimulation. We have also measured the intracavernosal pressure and CCS relaxation with or without adenosine treatment in wild type and multiple adenosine receptor deficient mice.

The subject of the next assay is CCS and CCSM. The assay can be described thus: Phenylephrine-induced myosin light chain (MLC) phosphorylation, western blot. Format: cell-based, mouse. Conditions: intact penile organ culture and CCSM, PE 10 μM, adenosine 100 μM. Here is the method:
(§1) FIG. 18. Adenosine stimulated both cAMP and cGMP induction in corpus cavernosal smooth muscle cells (CCSM) via A2BR activation. (a) Adenosine receptor expression profile in purified primary CCSM. CCSM were purified from adult mouse penes. […] (b) CCSM were isolated and cultured from mouse penes. The cells were switched to serum-free medium and treated with different concentrations of adenosine with or without A2BR antagonist (MRS1706-10 μM), A2AR antagonist (ZM241385-50 nM) or A2AR agonist (CGS-21680-10 μM) alone for 10 min. Then cellular extracts were collected and cAMP levels were measured using an ELISA kit. […] After 10 min treatment, the cellular extracts were collected and cAMP levels were measured by using a commercial enzyme immunoassay kit (Amersham Pharmacia). […] 10 min after treatment, cellular extracts were collected and cGMP levels were measured by using a commercial enzyme immunoassay kit (Amersham Pharmacia). Data are expressed as mean±SE. *p<0.05, adenosine treated versus the control; **p<0.05, adenosine treated with MRS1706 versus the adenosine treated; ***p<0.05, CCS of A2BR-deficient mice treated with adenosine versus the CCS of wild type mice treated with adenosine. […] After 10 min treatment, the cellular extracts were collected and cAMP levels were measured by using a commercial enzyme immunoassay kit (Amersham Pharmacia). […]

The test system of assay [2] is corpus cavernosal strips (CCS). The assay is described as follows: cGMP production in CCS (penile organ culture) in response to adenosine. Type of assay: cell-based, mouse. The method, then: as §1

“Also recorded” adds a separate entry of the source.

As to `Nc1ncnc2c1ncn2[C@@H]1O[C@H](CO)[C@@H](O)[C@H]1O` [adenosine], the “adenosine-induced increase in ICP” value in assay [1] (A2B-deficient mice, injection into the corpus cavernosum) is reported as “significantly reduced”. Also, the “intracavernous pressure (ICP) and its duration” value in assay [1] (wild type mice, administration of adenosine) is “induced an increase in intracavernous pressure (ICP) and its duration”. Besides, the penile erection entry in assay [1] (wild type mice, local (intracavernous) injection) was “resulted in penile erection”. In the assay with CCS and CCSM, the “PE-mediated MLC phosphorylation” value was “decreased PE-mediated MLC phosphorylation”. The figures for the cGMP production entry in assay [2] (CCS of A2BR-deficient mice) and in assay [2] (wild type penile organ culture (CCS)) were “absent” and “can increase cGMP production; also recorded: induced by adenosine in a dosage-dependent manner”, respectively.
